System: NL-RLuc virus
Experiment: Inhibition of HIV replication (NL-RLuc luciferase reporter virus in MT-2 cells)
Type: cell-based
Conditions: Human immunodeficiency virus 1, MT2, 120 h
From the text: Inhibition of HIV replication: A recombinant NL-RLuc proviral clone was constructed in which a section of the nef gene from NL4-3 was replaced with the Renilla Luciferase gene. This virus is fully infectious and can undergo multiple cycles of replication in cell culture. In addition, the luciferous reporter provides a simple and easy method for quantitating the extent of virus growth and consequently, the antiviral activity of test compounds. The plasmid pNLRLuc contains the proviral NL-Rluc DNA cloned into pUC18 at the PvuII site. The NL-RLuc virus was prepared by transfection of 293T cells with the plasmid pNLRLuc. Transfections were performed using the LipofectAMINE PLUS kit from Invitrogen (Carlsbad, Calif.) according to the manufacturer and the virus generated was titered in MT-2 cells. For susceptibility analyses, the titrated virus was used to infect MT-2 cells in the presence of compound, and after 5 days of incubation, cells were processed and quantitated for virus growth by the amount of expressed luciferase. Assay media was RPMI 1640 supplemented with 10% heat inactivated fetal bovine serum (FBS), 100 units/ml penicillin G/100 units/ml streptomycin, 10 mM HEPES buffer pH 7.55 and 2 mM L-glutamine. The results from at least 2 experiments were used to calculate the EC50 values. Luciferase was quantitated using the Dual Luciferase kit from Promega (Madison, Wis.). Susceptibility of viruses to compounds was determined by incubation in the presence of serial dilutions of the compound. The 50% effective concentration (EC50) was calculated by using the exponential form of the median effect equation where (Fa)=1/[1+(ED50/drug conc.)^m] (Johnson V A, Byington R T. Infectivity Assay. In Techniques in HIV Research. ed. Aldovini A, Walker B D. 71-76. New York: Stockton Press. 1990).

Structure (SMILES)	EC50 [nM]
Cc1nc2cc3nn2c(c1[C@H](OC(C)(C)C)C(=O)O)N1CCC(C)(CC1)OC/C=C/CCc1ccn(n1)-c1cccc-3c1 [Example 1, (2S)-tert-Butoxy[(21E)-4,25-dimethyl-24-oxa-1,5,7,8,15,30-hexaazahexacyclo[23.2.2.1^6,9.1^10,14.1^15,18.0^2,7]dotriaconta-2,4,6(32),8,10(31),11,13,16,18(30),21-decaen-3-yl]acetic acid]	87
Cc1nc2cc3nn2c(c1[C@H](OC(C)(C)C)C(=O)O)N1CCC(C)(CC1)OCCCCCc1ccn(n1)-c1cccc-3c1 [Example 2, (2S)-tert-Butoxy[4,25-dimethyl-24-oxa-1,5,7,8,15,30-hexaazahexacyclo[23.2.2.1^6,9.1^10,14.1^15,18.0^2,7]dotriaconta-2,4,6(32),8,10(31),11,13,16,18(30)-nonaen-3-yl]acetic acid]	49
Cc1nc2cc3nn2c(c1[C@H](OC(C)(C)C)C(=O)O)N1CCC(C)(CC1)OCCCCCn1ccc(n1)-c1cccc-3c1 [Example 3, (2S)-tert-Butoxy[4,25-dimethyl-24-oxa-1,5,7,8,18,30-hexaazahexacyclo[23.2.2.1^6,9.1^10,14.1^15,18.0^2,7]dotriaconta-2,4,6(32),8,10(31),11,13,15(30),16-nonaen-3-yl]acetic acid]	26
Cc1nc2cc3nn2c(c1[C@H](OC(C)(C)C)C(=O)O)N1CCC(C)(CC1)OCCCCn1ccc(n1)-c1cccc-3c1 [Example 4, (2S)-tert-butoxy[4,24-dimethyl-23-oxa-1,5,7,8,18,29-hexaazahexacyclo[22.2.2.1^6,9.1^10,14.1^15,18.0^2,7]hentriaconta-2,4,6(31),8,10(30),11,13,15(29),16-nonaen-3-yl]acetic acid]	14
Cc1cc2n(n1)-c1cccc(c1)-c1cc3nc(C)c([C@H](OC(C)(C)C)C(=O)O)c(n3n1)N1CCC(C)(CCCCCC2)CC1 [Example 5, (2S)-tert-Butoxy[4,17,26-trimethyl-1,5,7,8,15,16-hexaazahexacyclo[24.2.2.1^6,9.1^10,14.0^2,7.0^15,19]dotriaconta-2,4,6(32),8,10(31),11,13,16,18-nonaen-3-yl]acetic acid]	4
Cc1cc2n(n1)-c1cccc(c1)-c1cc3nc(C)c([C@H](OC(C)(C)C)C(=O)O)c(n3n1)N1CCC(C)(CCCCC2)CC1 [Example 6, (2S)-tert-butoxy[4,17,25-trimethyl-1,5,7,8,15,16-hexaazahexacyclo[23.2.2.1^6,9.1^10,14.0^2,7.0^15,19]hentriaconta-2,4,6(31),8,10(30),11,13,16,18-nonaen-3-yl]acetic acid]	7
Cc1nc2c(s1)CCCCCCC1(C)CCN(CC1)c1c([C@H](OC(C)(C)C)C(=O)O)c(C)nc3cc(nn13)-c1cccc-2c1 [Example 7, (2S)-tert-Butoxy[4,17,26-trimethyl-18-thia-1,5,7,8,16-pentaazahexacyclo[24.2.2.1^6,9.1^10,14.0^2,7.0^15,19]dotriaconta-2,4,6(32),8,10(31),11,13,15(19),16-nonaen-3-yl]acetic acid]	7
Cc1nc2c(s1)CCCCCC1(C)CCN(CC1)c1c([C@H](OC(C)(C)C)C(=O)O)c(C)nc3cc(nn13)-c1cccc-2c1 [Example 8, (2S)-tert-butoxy[4,17,25-trimethyl-18-thia-1,5,7,8,16-pentaazahexacyclo[23.2.2.1^6,9.1^10,14.0^2,7.0^15,19]hentriaconta-2,4,6(31),8,10(30),11,13,15(19),16-nonaen-3-yl]acetic acid]	7
Cc1nc2cc3nn2c(c1[C@H](OC(C)(C)C)C(=O)O)N1CCC(C)(CC/C=C/CCc2nc(C)c(C)n2-c2cccc-3c2)CC1 [Example 9, (2S)-tert-Butoxy[4,16,17,26-tetramethyl-1,5,7,8,15,18-hexaazahexacyclo[24.2.2.1^6,9.1^10,14.0^2,7.0^15,19]dotriaconta-2,4,6(32),8,10(31),11,13,16,18,22-decaen-3-yl]acetic acid]	9
Cc1nc2cc3nn2c(c1[C@H](OC(C)(C)C)C(=O)O)N1CCC(C)(CCCCCCc2nc(C)c(C)n2-c2cccc-3c2)CC1 [Example 10, (2S)-tert-Butoxy[4,16,17,26-tetramethyl-1,5,7,8,15,18-hexaazahexacyclo[24.2.2.1^6,9.1^10,14.0^2,7.0^15,19]dotriaconta-2,4,6(32),8,10(31),11,13,16,18-nonaen-3-yl]acetic acid]	7
